Source: patent publication US5428059A, “Benzopyran derivatives and an anti-allergic agent possessing the same as the active ingredient” (Dainippon Ink & Chemicals, Inc., priority 1991, dated 1995)

Assays:
[1] = Mouse Acute Toxicity Assay (oral, 7 days observation); conditions: in vivo, ICR-type male mice, single forced oral administration 1000 and 2000 mg/kg, estimated from survival ratio
Method: Mouse Acute Toxicity Assay
The present Example was carried out in order to confirm the safety of the novel compound according to the present invention. In the following the assay method used will be explained.
Assay method: After ICR-type male mice (body weight=20~25 g) were fasted for 16 hours, each substance to be tested was forcibly administered orally at 1000 mg/kg and 2000 mg/kg to groups of five mice, using a esophageal sound. After administration, the mice were kept in cages for seven days, following which observations were made on the general conditions and existence of dead animals. From the survival ratio of the mice at the end of the observation, the lethal dose 50 (LD50) was estimated.
The results of the mouse acute toxicity assay are recorded in Tables 1 and 2.

[2] = tested on: Hartley-type male guinea pigs; test: Guinea Pig Homogeneous Skin Passive Anaphylaxis Assay (PCA reaction); type: in vivo, guinea pig (Hartley-type); conditions: for inhibition in vivo at 10 mg/kg: 10 mg/kg oral
How it was run: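 Male Hartley guinea pigs (250~300 g) given intradermal back injections of 120-fold-diluted anti-OVA serum; 48 h later test substance dosed orally at 10 mg/kg, then challenged i.v. with OVA plus Evans Blue. Dye-spot area (long × short diameter, mm^2) measured at 30 min; inhibition % calculated against solvent control.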

[3] = oral administration; cited from earlier work
[4] = tested on: mice; conditions: Tranilast, cited from earlier work
[5] = Cavia porcellus, 48 h after sensitization, read-out: Allergic reaction inhibitory index (%)

Work on `CC(C)=CCC/C(C)=C/COc1c(O)c2cc(O)ccc2oc1=O` [Compound 269, 4,6-(dihydroxy)-3-(geranyloxy)-2H-1-benzopyran-2-one] yielded an LD50 at 168 h [1] of over 1000 mg/kg and an inhibition in vivo at 10 mg/kg [2, 5] of 33%.
In the case of `O=C(O)c1cc(=O)c2c(OCC(O)COc3cccc4oc(C(=O)O)cc(=O)c34)cccc2o1` [Disodium Cromoglicate], the “absorption into the living body” value [3] is listed as “difficult to absorb”.
In the case of `COc1ccc(/C=C/C(=O)Nc2ccccc2C(=O)O)cc1OC` [Tranilast, reference compound], the inhibition in vivo at 100 mg/kg ([2]; Cavia porcellus, positive control, 100 mg/kg oral, 48 h after sensitization, read-out: Allergic reaction inhibitory index (%)) is listed as 52%, the “anti-allergic action, compounds of the invention (10 mg/kg) versus Tranilast (100 mg/kg)” value ([2]; oral) is listed as “approximately equal to or less than the anti-allergic action exhibited by the compounds of the present invention” and the “acute toxic value (LD50)” value ([4]; background) is listed as 680 to 780 mg/kg. The LD50 ([4]; male mice) was 780 mg/kg.
In the case of `COc1c(O)c2cc(OC(C)=O)ccc2oc1=O` [Compound 270, 3-(methoxy)-4-hydroxy-6-(acetoxy)-2H-1-benzopyran-2-one], the LD50 at 168 h [1] is reported as over 2000 mg/kg and the inhibition in vivo at 10 mg/kg [2, 5] is reported as 35%.
Work on `CC(C)=CCC/C(C)=C/COc1ccc2oc(=O)c(O)c(O)c2c1` [Compound 280, 3,4-(dihydroxy)-6-(geranyloxy)-2H-1-benzopyran-2-one] yielded an LD50 at 168 h [1] of over 1000 mg/kg and an inhibition in vivo at 10 mg/kg [2, 5] of 35%.
In the case of `CC(=O)Oc1ccc2oc(=O)c(OC/C=C(\C)CCC=C(C)C)c(O)c2c1` [Compound 271, 3-(geranyloxy)-4-hydroxy-6-(acetoxy)-2H-1-benzopyran-2-one], the LD50 at 168 h [1] is reported as over 1000 mg/kg and the inhibition in vivo at 10 mg/kg [2, 5] is reported as 33%.
Compound `CC(C)Oc1c(OC(=O)c2ccccc2)c2ccc(O)cc2oc1=O` [Compound 13, 3-(isopropoxy)-4-(benzoyloxy)-7-hydroxy-2H-1-benzopyran-2-one] has an inhibition in vivo at 10 mg/kg [2, 5] of 32%.
In the case of `CCCCCCCCCCOc1ccc2oc(=O)c(O)c(OC)c2c1` [Compound 277, 3-(hydroxy)-4-(methoxy)-6-(decyloxy)-2H-1-benzopyran-2-one], the inhibition in vivo at 10 mg/kg [2, 5] is reported as 35%.
In the case of `CCCCCCCCCCOc1ccc2c(O)c(OC)c(=O)oc2c1` [Compound 62, 3-(methoxy)-4-hydroxy-7-(decyloxy)-2H-1-benzopyran-2-one], the inhibition in vivo at 10 mg/kg [2, 5] is reported as 43%.
